Experimental data taken from patent publication US20150079000A1, “Labelled Quinoxaline Derivatives as Multimodal Radiopharmaceuticals and Their Precursors” (INSTITUT NATIONAL DE LA SANTET DE LA RECHERCHE MEDICALE, priority 2012, published 2015).

What was measured:
B16BL6 tumour = assay: PET imaging in B16BL6 tumour bearing mice; format: in vivo, C57BL/6J mice; conditions: 1 h p.i., day-15
Protocol: (§1) All our studies were performed in accordance with French and European Economic Community (86-609, EEC) guidelines for care of laboratory animals. Protocols were performed under the authorization of the French Direction des Services Veterinaires (authorization no. CE 86-12). Male C57BL/6J mice were originating from Charles River laboratories and maintained at 21° C. with a 12 h/12 h light/dark cycle, fed with a breeding diet (diet A04 from Safe, Villemoisson, France) and received water ad libitum. For transplantation B16BL6 cell suspension were grown in a monolayer culture to confluence, after which cells were trypsinized, washed with phosphate buffer saline (PBS) and they were resuspended in PBS. Mice were anesthetized by isoflurane (4% for induction and 2±0.5% for maintaining in oxygen flux) inhalation. The primary tumour model was induced by subcutaneous injection of 3×10^5 melanoma B16B16 cells in 0.1 mL on the right shoulder of mice.
Whole-body PET scans were acquired 1 h after bolus injection of […] of the appropriate [^18F]-compound in a volume of 0.15 ml via the tail vein. Mice were anesthetized by intraperitoneal (i.p.) administration (200 μL/mouse) of a ketamine-xylazine mixture in saline: ketamine (100 mg/kg, Imalgene™, Rhône Mérieux, Lyon, France) and xylazine (10 mg/kg, Rompun™, Bayer, France) before radiotracer injection and imaged by using a small-animal PET device, eXplore Vista microPET instrument (GE Healthcare). PET images were acquired by using static mode during 20 min. The acquired data were reconstructed using the 2-Dimensional ordered-subsets expectation maximization (OSEM) algorithm and corrected from decay, scatter and randoms. No corrections were applied for partial volume or attenuation.
Regional tracer uptake was quantified by standard region-of-interest (ROI) analysis with eXplore Vista software package. A manual 2D-ROI was drawn around the tumour in each slice where tumour was visible, and on several subsequent coronal planes containing muscle tissue at the forelimb. Results are expressed by percentage of injected dose per gram of tissue (% ID/g).
PET imaging was performed 1 h post injection of tracers in B16BL6 tumour bearing mice at day-15 after tumours cell inoculation.

[1] = radiochemical stability of the radiotracer after preparation; format: physicochemical
[2] = octanol/water (PBS buffer) partition coefficient (log D); format: physicochemical
[3] = test system: B16 murine melanoma tumours; assay: Ex vivo biodistribution of [18F]-labelled compounds; format: in vivo, C57BL/6J mice
Protocol: as §1
Ex vivo biodistribution studies: An ex vivo biodistribution study was performed for better comparison of [^18F](1) and [^18F](5). Experimentations were undertaken at day-10 or day-14 after cell inoculation (n=3-6/group). […] Tumours and major organs and tissues were promptly excised, harvested, weighted and their radioactivity counted using a calibrated γ-counter with a 400 to 600 keV energy window. After radioactive decay correction, results were expressed as percentage of injected dose per gram of tissue (% ID/g).

CCN(CCNC(=O)c1cnc2cc(I)ccc2n1)CCOCCOCCOCCOCCOCCOCCOCC[18F] [[^18F](5)]
eyes uptake (B16BL6 tumour): 5.53±1.35 % ID/g | muscles activity (B16BL6 tumour): 1.01±0.09 % ID/g | tumour uptake (B16BL6 tumour): 6.63±1.64 % ID/g | tumour/muscle ratio (B16BL6 tumour): 6.62±1.90 | radiochemically stable at room temperature after preparation [1]: at least 6 h | octanol/water (PBS buffer) partition coefficient (log D) [2]: 0.95±0.02 | % ID/g (tumour) ([3]; 1 h p.i.): 9.81 ± 2.96 % ID/g | % ID/g Blood ([3]; 1 h p.i.): 1.15 ± 0.19 % ID/g | % ID/g Bones ([3]; 1 h p.i.): 1.82±0.55 % ID/g | % ID/g Brain ([3]; 1 h p.i.): 1.03 ± 0.18 % ID/g | % ID/g Ceacum ([3]; 1 h p.i.): 6.37 ± 4.84 % ID/g | % ID/g Colon + faeces ([3]; 1 h p.i.): 7.39 ± 1.36 % ID/g | % ID/g Eyes ([3]; 1 h p.i.): 12.24 ± 4.39 % ID/g | % ID/g Heart ([3]; 1 h p.i.): 1.58 ± 0.24 % ID/g | % ID/g Kidney ([3]; 1 h p.i.): 3.60 ± 1.74 % ID/g | % ID/g Liver ([3]; 1 h p.i.): 2.02 ± 0.19 % ID/g | % ID/g Lung ([3]; 1 h p.i.): 1.75 ± 0.18 % ID/g | % ID/g Muscle ([3]; 1 h p.i.): 1.07 ± 0.35 % ID/g | % ID/g Pancreas ([3]; 1 h p.i.): 2.63 ± 1.33 % ID/g | % ID/g Skin ([3]; 1 h p.i.): 1.22 ± 0.22 % ID/g | % ID/g Small intestine ([3]; 1 h p.i.): 16.68 ± 7.93 % ID/g | % ID/g Spleen ([3]; 1 h p.i.): 2.35 ± 0.91 % ID/g | % ID/g Stomach ([3]; 1 h p.i.): 5.87 ± 3.32 % ID/g | TBR Tumour-to-Blood Ratio ([3]; 1 h p.i.): 8.29 ± 2.87 | TBoR Tumour-to-Bone Ratio ([3]; 1 h p.i.): 5.35 ± 0.82 | TMR Tumour-to-Muscle Ratio ([3]; 1 h p.i.): 9.48 ± 2.41 | % ID/g (tumour) ([3]; 2 h p.i.): 5.81 ± 1.37 % ID/g | % ID/g Blood ([3]; 2 h p.i.): 1.37 ± 0.30 % ID/g | % ID/g Bones ([3]; 2 h p.i.): 2.13 ± 0.19 % ID/g | % ID/g Brain ([3]; 2 h p.i.): 1.03 ± 0.10 % ID/g | % ID/g Ceacum ([3]; 2 h p.i.): 12.10 ± 10.31 % ID/g | % ID/g Colon + faeces ([3]; 2 h p.i.): 8.14 ± 1.78 % ID/g | % ID/g Eyes ([3]; 2 h p.i.): 12.10 ± 1.85 % ID/g | % ID/g Heart ([3]; 2 h p.i.): 1.70 ± 0.24 % ID/g | % ID/g Kidney ([3]; 2 h p.i.): 3.52 ± 1.02 % ID/g | % ID/g Liver ([3]; 2 h p.i.): 2.31 ± 0.64 % ID/g | % ID/g Lung ([3]; 2 h p.i.): 1.72 ± 0.72 % ID/g | % ID/g Muscle ([3]; 2 h p.i.): 1.04 ± 0.24 % ID/g | % ID/g Pancreas ([3]; 2 h p.i.): 1.56 ± 0.38 % ID/g | % ID/g Skin ([3]; 2 h p.i.): 0.94 ± 0.51 % ID/g | % ID/g Small intestine ([3]; 2 h p.i.): 19.51 ± 5.43 % ID/g | % ID/g Spleen ([3]; 2 h p.i.): 2.38 ± 0.87 % ID/g | % ID/g Stomach ([3]; 2 h p.i.): 7.35 ± 4.79 % ID/g | TBR Tumour-to-Blood Ratio ([3]; 2 h p.i.): 4.01 ± 1.12 | TBoR Tumour-to-Bone Ratio ([3]; 2 h p.i.): 2.75 ± 0.80 | TMR Tumour-to-Muscle Ratio ([3]; 2 h p.i.): 5.75 ± 1.45 | % ID/g (tumour) ([3]; 3 h p.i.): 6.76±1.35 % ID/g | % ID/g Blood ([3]; 3 h p.i.): 0.99 ± 0.20 % ID/g | % ID/g Bones ([3]; 3 h p.i.): 3.61 ± 1.12 % ID/g | % ID/g Brain ([3]; 3 h p.i.): 1.72 ± 0.67 % ID/g | % ID/g Ceacum ([3]; 3 h p.i.): 29.31 ± 17.94 % ID/g | % ID/g Colon + faeces ([3]; 3 h p.i.): 12.63 ± 7.83 % ID/g | % ID/g Eyes ([3]; 3 h p.i.): 13.43 ± 2.17 % ID/g | % ID/g Heart ([3]; 3 h p.i.): 3.00 ± 1.12 % ID/g | % ID/g Kidney ([3]; 3 h p.i.): 2.60 ± 1.69 % ID/g | % ID/g Liver ([3]; 3 h p.i.): 2.60 ± 1.37 % ID/g | % ID/g Lung ([3]; 3 h p.i.): 2.37 ± 0.67 % ID/g | % ID/g Muscle ([3]; 3 h p.i.): 1.11 ± 0.34 % ID/g | % ID/g Pancreas ([3]; 3 h p.i.): 1.81 ± 0.66 % ID/g | % ID/g Skin ([3]; 3 h p.i.): 1.47 ± 0.49 % ID/g | % ID/g Small intestine ([3]; 3 h p.i.): 18.62 ± 13.65 % ID/g | % ID/g Spleen ([3]; 3 h p.i.): 2.35 ± 0.98 % ID/g | % ID/g Stomach ([3]; 3 h p.i.): 5.39 ± 3.13 % ID/g | TBR Tumour-to-Blood Ratio ([3]; 3 h p.i.): 5.27±0.20 | TBoR Tumour-to-Bone Ratio ([3]; 3 h p.i.): 2.16 ± 1.15 | TMR Tumour-to-Muscle Ratio ([3]; 3 h p.i.): 6.64±2.69 | in vivo defluorination ([3]; 3 h p.i.): Partial in vivo defluorinations

CCN(CCNC(=O)c1cnc2cc(I)ccc2n1)Cc1cn(CC[18F])nn1 [[^18F](7)]
muscles activity (B16BL6 tumour): 0.84 % ID/g | tumour uptake (B16BL6 tumour): 14.55 % ID/g | tumour/muscle ratio (B16BL6 tumour): 17.41 | radiochemically stable at room temperature after preparation [1]: at least 6 h | octanol/water (PBS buffer) partition coefficient (log D) [2]: 2.22±0.03
